Laboratory results from ChEMBL document CHEMBL4261511, “Synthesis, structure-activity relationship and binding mode analysis of 4-thiazolidinone derivatives as novel inhibitors of human dihydroorotate dehydrogenase” (Medchemcomm, 2017).

What follows are compounds tested against T1, Dihydroorotate dehydrogenase (quinone), mitochondrial (Homo sapiens, UniProt Q02127) (assay: Inhibition of human DHODH using dihydroorotate substrate by DCIP assay).
T1 sequence (Q02127 whole entry): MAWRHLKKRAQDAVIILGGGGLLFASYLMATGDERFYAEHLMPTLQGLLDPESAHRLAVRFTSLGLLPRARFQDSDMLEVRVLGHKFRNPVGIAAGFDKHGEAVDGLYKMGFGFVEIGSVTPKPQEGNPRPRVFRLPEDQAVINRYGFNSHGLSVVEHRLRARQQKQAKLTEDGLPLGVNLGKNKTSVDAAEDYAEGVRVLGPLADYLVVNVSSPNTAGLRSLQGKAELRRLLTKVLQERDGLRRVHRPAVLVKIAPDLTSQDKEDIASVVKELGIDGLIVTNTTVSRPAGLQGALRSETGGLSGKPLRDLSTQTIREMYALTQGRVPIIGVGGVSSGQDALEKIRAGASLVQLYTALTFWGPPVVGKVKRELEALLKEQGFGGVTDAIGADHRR

N#C/C(C(=O)O)=C1/SCC(=O)N1c1ccccc1F and N#C/C(C(N)=O)=C1/SCC(=O)N1c1ccccc1F cannot be ordered by IC50: greater than 10 µM for the first, greater than 10 µM for the second.

Compared with COC(=O)/C(C#N)=C1\SCC(=O)N1c1ccc(C(F)(F)F)cc1, COC(=O)/C(C#N)=C1\SCC(=O)N1c1ccc(F)cc1 is 3.5-fold higher in IC50: 3.03 µM for the first, 10.6 µM for the second.

COC(=O)/C(C#N)=C1\SCC(=O)N1c1ccccc1Cl and COC(=O)/C(C#N)=C1\SCC(=O)N1c1ccccc1F cannot be ordered by IC50: greater than 10 µM for the first, greater than 10 µM for the second.

Going from COC(=O)/C(C#N)=C1\SCC(=O)N1c1ccc(C(=O)O)cc1 to COC(=O)/C(C#N)=C1\SCC(=O)N1c1ccc(Br)cc1, the IC50 falls from greater than 10 µM to 2.68 µM.

COC(=O)/C(C#N)=C1\SCC(=O)N1c1ccccc1I and COC(=O)/C(C#N)=C1\SCC(=O)N1c1cccc2ccccc12 cannot be ordered by IC50: greater than 10 µM for the first, greater than 10 µM for the second.

CCOC(=O)C(C(=O)OCC)=C1SCC(=O)N1c1ccccc1F and COC(=O)C(C(=O)OC)=C1SCC(=O)N1c1ccccc1F cannot be ordered by IC50: greater than 10 µM for the first, greater than 10 µM for the second.

CCCOC(=O)/C(C#N)=C1\SCC(=O)N1c1ccccc1F and CCCCOC(=O)/C(C#N)=C1\SCC(=O)N1c1ccccc1F cannot be ordered by IC50: greater than 10 µM for the first, greater than 10 µM for the second.

COC(=O)/C(C#N)=C1\SCCN1c1ccccc1F and COC(=O)/C(C#N)=C1\SCCC(=O)N1c1ccccc1F cannot be ordered by IC50: greater than 10 µM for the first, greater than 10 µM for the second.

Going from COC(=O)/C(C#N)=C1\SCC(=O)N1c1ccc(OC)cc1F to COC(=O)/C(C#N)=C1\SCC(=O)N1c1ccc(OC)cc1, the IC50 falls from greater than 10 µM to 9.45 µM.

CC(C)(C)OC(=O)/C(C#N)=C1\SCC(=O)N1c1ccccc1F and CCOC(=O)/C(C#N)=C1\SCC(=O)N1c1ccccc1F cannot be ordered by IC50: greater than 10 µM for the first, greater than 10 µM for the second.

First: O=C1CSC(=S)N1c1ccc(C(F)(F)F)cc1
Second: COC(=O)/C(C#N)=C1\SCC(=O)N1c1ccc([N+](=O)[O-])cc1
The IC50 of the first is higher: greater than 10 µM for the first, 4.41 µM for the second.

Going from COC(=O)/C(C#N)=C1\SCC(=O)N1c1cccc(Cl)c1 to COC(=O)/C(C#N)=C1\SCC(=O)N1c1cccc(F)c1, the IC50 rises from 8.51 µM to greater than 10 µM. The first is the more potent here.

COC(=O)/C(C#N)=C1\SCC(=O)N1c1cccc(Cl)n1 and COC(=O)/C(C#N)=C1\SCC(=O)N1c1ccnc(Cl)c1 cannot be ordered by IC50: greater than 10 µM for the first, greater than 10 µM for the second.

These compounds were tested against T1, Dihydroorotate dehydrogenase (quinone), mitochondrial (assay: Inhibition of human DHODH at 10 uM using dihydroorotate substrate by DCIP assay relative to control).

In order of rising inhibition:
1. COC(=O)C(C(=O)OC)=C1SCC(=O)N1c1ccccc1F  4.27%
2. CCOC(=O)C(C(=O)OCC)=C1SCC(=O)N1c1ccccc1F  8.71%
3. COC(=O)/C(C#N)=C1\SCCN1c1ccccc1F  11.1%
4. N#C/C(C(N)=O)=C1/SCC(=O)N1c1ccccc1F  11.8%
5. N#C/C(C(=O)O)=C1/SCC(=O)N1c1ccccc1F  14.9%
6. COC(=O)/C(C#N)=C1\SCC(=O)N1c1ccc(C(=O)O)cc1  15.1%
7. COC(=O)/C(C#N)=C1\SCCC(=O)N1c1ccccc1F  15.7%
8. COC(=O)/C(C#N)=C1\SCC(=O)N1c1ccccc1I  18.4%
9. COC(=O)/C(C#N)=C1\SCC(=O)N1c1cccc2ccccc12  21.9%
10. O=C1CSC(=S)N1c1ccc(C(F)(F)F)cc1  25.6%
11. CCCCOC(=O)/C(C#N)=C1\SCC(=O)N1c1ccccc1F  28.8%
12. CCCOC(=O)/C(C#N)=C1\SCC(=O)N1c1ccccc1F  33.5%
13. CC(C)(C)OC(=O)/C(C#N)=C1\SCC(=O)N1c1ccccc1F  33.9%
14. COC(=O)/C(C#N)=C1\SCC(=O)N1c1cccc(F)c1  34.1%
15. COC(=O)/C(C#N)=C1\SCC(=O)N1c1ccccc1F  34.9%
16. CCOC(=O)/C(C#N)=C1\SCC(=O)N1c1ccccc1F  38.2%
17. COC(=O)/C(C#N)=C1\SCC(=O)N1c1ccccc1Cl  40%
18. COC(=O)/C(C#N)=C1\SCC(=O)N1c1ccc(OC)cc1F  40.4%
19. COC(=O)/C(C#N)=C1\SCC(=O)N1c1cccc(Cl)n1  43.7%
20. COC(=O)/C(C#N)=C1\SCC(=O)N1c1ccnc(Cl)c1  45.4%
21. COC(=O)/C(C#N)=C1\SCC(=O)N1c1ccc(F)cc1  49.4%
22. COC(=O)/C(C#N)=C1\SCC(=O)N1c1ccc(OC)cc1  52.5%
23. COC(=O)/C(C#N)=C1\SCC(=O)N1c1cccc(Cl)c1  56.9%
24. COC(=O)/C(C#N)=C1\SCC(=O)N1c1ccc([N+](=O)[O-])cc1  62.9%
25. COC(=O)/C(C#N)=C1\SCC(=O)N1c1ccc(Br)cc1  69%
26. COC(=O)/C(C#N)=C1\SCC(=O)N1c1ccc(C(F)(F)F)cc1  74.4%
27. COC(=O)/C(C#N)=C1\SCC(=O)N1c1ccc(C(C)(C)C)cc1  79.1%
28. COC(=O)/C(C#N)=C1\SCC(=O)N1c1ccc2ccccc2c1  80.3%
